Measurements: patent publication US20220370486A1, “COMBINATION TREATMENT OF SYSTEMIC FUNGAL INFECTIONS” (The Board of Trustees of the University of Illinois, priority 2019, published 2022)
≈ marks a conversion by molar mass, not a printed value. Read-outs that look alike come from different tables or passages of the source. Each block holds one compound with its values, some of them ahead of it.

Tests used:
C. glabrata 1046695 = assay: Checkerboard broth microdilution (CLSI); assay type: cell-based; conditions: isolate 1046695; for MIC: Nakaseomyces glabratus, single agent
Method: (§1) Isolates were tested against varying concentrations of amphotericin B and C2′epiAmB (range, 0.06 to 4 mg/L) and combined with fluconazole (range, 0.12 to 128 mg/L) or ketoconazole (range 0.008 to 8 mg/L) or voriconazole (range, 0.004 to 4 mg/L) using a checkerboard grid design following the Clinical and Laboratory Standards Institute (CLSI) broth microdilution method (M23Ed5).

C. krusei ATCC 6258 = assay: Checkerboard broth microdilution (CLSI); assay type: cell-based; conditions: isolate ATCC 6258
Method: as §1

C. krusei 975691 = assay: Checkerboard broth microdilution (CLSI); assay type: cell-based
Method: as §1

C. albicans 967374 = assay: Checkerboard broth microdilution (CLSI); assay type: cell-based; conditions: isolate 967374; for MIC: single agent
Method: as §1

C. auris 1081160 = assay: Checkerboard broth microdilution (CLSI); assay type: cell-based; conditions: isolate 1081160; for MIC: Candidozyma auris, single agent
Method: as §1

A. fumigatus 1077391 = assay: Checkerboard broth microdilution (CLSI); assay type: cell-based; conditions: isolate 1077391; for MIC: Aspergillus fumigatus, single agent
Method: as §1

F. solani SC 1047542 = assay: Checkerboard broth microdilution (CLSI); assay type: cell-based; conditions: isolate 1047542; for MIC: Fusarium solani, single agent
Method: as §1

A. flavus ATCC 204304 = assay: Checkerboard broth microdilution (CLSI); assay type: cell-based; conditions: isolate ATCC 204304; for MIC: Aspergillus flavus, ATCC204304, single agent
Method: as §1

A. flavus SC 1085986 = assay: Checkerboard broth microdilution (CLSI); assay type: cell-based; conditions: isolate 1085986; for MIC: Aspergillus flavus, single agent
Method: as §1

[1] = test system: A. fumigatus ATCC MYA-3626; assay: Checkerboard broth microdilution (CLSI); assay type: cell-based; conditions: isolate ATCC MYA-3626; for MIC: single agent
Method: as §1

F. oxysporum SC 1087597 = assay: Checkerboard broth microdilution (CLSI); assay type: cell-based; conditions: isolate 1087597; for MIC: Fusarium oxysporum, single agent
Method: as §1

C. parapsilosis 1048737 = assay: Checkerboard broth microdilution (CLSI); assay type: cell-based; conditions: isolate 1048737; for MIC: single agent
Method: as §1

C. tropicalis 1046709 = assay: Checkerboard broth microdilution (CLSI); assay type: cell-based; conditions: isolate 1046709; for MIC: Candida tropicalis, single agent
Method: as §1

[2] = test system: C. parapsilosis ATCC 22019; assay: Checkerboard broth microdilution (CLSI); assay type: cell-based; conditions: isolate ATCC 22019
Method: as §1

Candida albicans SN250 = assay: MIC against Candida albicans SN250; assay type: cell-based
yeast cells = assay: Antifungal activity after ergosterol pre-complexation of the sponge; assay type: cell-based; conditions: sponge pre-complexed with ergosterol
Description: Anderson, T. M. et al., Nat Chem Biol 2014, 10 (5), 400-6. […] Davis, S. A., et al., Nat Chem Biol 2015, 11 (7), 481-7. To test whether C2′epiAmB primarily kills cells via the same sterol sponge mechanism, the C2′epiAmB sponge was similarly pre-complexed with ergosterol. […] Thus, C2′epiAmB similarly kills yeast primarily via sterol binding, and, by extension, the new compounds targeted in this application are expected to have a similar barrier to fungal resistance that has been observed for the past 50+years with AmB.

[3] = UV-Vis and PCA based sterol sponge binding assay; conditions: apparent KD, sterol sponge aggregates in vitro
Description: However, an alternative method was developed for reproducible formation of homogenous AmB and C2′epiAmB sterol sponge aggregates in vitro. Using these preparations, a quantitative UV-Vis and Principle Component (PCA) based assay for determining the apparent Kis for the binding of AmB and C2′epiAmB to ergosterol and cholesterol (FIGS. 2A-2D) was developed.

[4] = Pichia kudriavzevii, ATCC6258, single agent, read-out: MIC
[5] = Pichia kudriavzevii, single agent, isolate 975691, read-out: MIC
[6] = Candida albicans, read-out: MIC
[7] = Aspergillus fumigatus, read-out: MIC
[8] = Lodderomyces parapsilosis, read-out: MIC
[9] = Lodderomyces parapsilosis, ATCC22019, single agent, read-out: MIC

- MIC (C. glabrata 1046695; read-out: MIC): 0.5 µg/mL
- MIC when added 1 log2 unit lower of azoles' MIC (C. glabrata 1046695; with fluconazole): 0.5 mg/L
- MIC when added 1 log2 unit lower of azoles' MIC (C. glabrata 1046695; with ketoconazole): 0.06 mg/L
- MIC when added 1 log2 unit lower of azoles' MIC (C. glabrata 1046695; with voriconazole): 0.5 mg/L
- MIC (C. krusei ATCC 6258; [4]): 0.5 µg/mL
- MIC (C. krusei ATCC 6258; single agent): 1 µg/mL
- MIC when added 1 log2 unit lower of azoles' MIC (C. krusei ATCC 6258; with fluconazole): 0.5 mg/L
- MIC when added 1 log2 unit lower of azoles' MIC (C. krusei ATCC 6258; with ketoconazole): 0.5 mg/L
- MIC when added 1 log2 unit lower of azoles' MIC (C. krusei ATCC 6258; with voriconazole): 0.5 mg/L
- MIC (C. krusei 975691; [5]): 1 µg/mL
- MIC (C. krusei 975691; single agent, isolate 975691): 0.5 µg/mL
- MIC when added 1 log2 unit lower of azoles' MIC (C. krusei 975691; with fluconazole, isolate 975691): 0.5 mg/L
- MIC when added 1 log2 unit lower of azoles' MIC (C. krusei 975691; with ketoconazole, isolate 975691): 0.5 mg/L
- MIC when added 1 log2 unit lower of azoles' MIC (C. krusei 975691; with voriconazole, isolate 975691): 0.5 mg/L
- MIC (C. albicans 967374; [6]): 0.5 µg/mL
- MIC (C. albicans 967374): 1 µg/mL
- MIC when added 1 log2 unit lower of azoles' MIC (C. albicans 967374; with fluconazole): 0.5 mg/L
- MIC when added 1 log2 unit lower of azoles' MIC (C. albicans 967374; with ketoconazole): 0.5 mg/L
- MIC when added 1 log2 unit lower of azoles' MIC (C. albicans 967374; with voriconazole): 0.5 mg/L
- MIC (C. auris 1081160; read-out: MIC): 1 µg/mL
- MIC when added 1 log2 unit lower of azoles' MIC (C. auris 1081160; with fluconazole): 0.06 mg/L
- MIC when added 1 log2 unit lower of azoles' MIC (C. auris 1081160; with ketoconazole): 1 mg/L
- MIC when added 1 log2 unit lower of azoles' MIC (C. auris 1081160; with voriconazole): 1 mg/L
- MIC (A. fumigatus 1077391): 1 µg/mL
- MIC when added 1 log2 unit lower of azoles' MIC (A. fumigatus 1077391; with ketoconazole): 0.06 mg/L
- MIC when added 1 log2 unit lower of azoles' MIC (A. fumigatus 1077391; with voriconazole): 1 mg/L
- MIC (F. solani SC 1047542): 2 µg/mL
- MIC when added 1 log2 unit lower of azoles' MIC (F. solani SC 1047542; with ketoconazole): 0.06 mg/L
- MIC when added 1 log2 unit lower of azoles' MIC (F. solani SC 1047542; with voriconazole): 2 mg/L
- MIC (A. flavus ATCC 204304): 1 µg/mL
- MIC when added 1 log2 unit lower of azoles' MIC (A. flavus ATCC 204304; with ketoconazole): 1 mg/L
- MIC when added 1 log2 unit lower of azoles' MIC (A. flavus ATCC 204304; with voriconazole): 0.5 mg/L
- MIC (A. flavus SC 1085986): 2 µg/mL
- MIC when added 1 log2 unit lower of azoles' MIC (A. flavus SC 1085986; with ketoconazole): 1 mg/L
- MIC when added 1 log2 unit lower of azoles' MIC (A. flavus SC 1085986; with voriconazole): 2 mg/L
- MIC [1, 7]: 1 µg/mL
- MIC when added 1 log2 unit lower of azoles' MIC ([1]; with ketoconazole): 2 mg/L
- MIC when added 1 log2 unit lower of azoles' MIC ([1]; with voriconazole): 1 mg/L
- MIC (F. oxysporum SC 1087597): 2 µg/mL
- MIC when added 1 log2 unit lower of azoles' MIC (F. oxysporum SC 1087597; with ketoconazole): 0.06 mg/L
- MIC when added 1 log2 unit lower of azoles' MIC (F. oxysporum SC 1087597; with voriconazole): 2 mg/L
- MIC (C. parapsilosis 1048737; [8]): 0.5 µg/mL
- MIC when added 1 log2 unit lower of azoles' MIC (C. parapsilosis 1048737; with fluconazole): 0.25 mg/L
- MIC when added 1 log2 unit lower of azoles' MIC (C. parapsilosis 1048737; with ketoconazole): 0.25 mg/L
- MIC when added 1 log2 unit lower of azoles' MIC (C. parapsilosis 1048737; with voriconazole): 0.25 mg/L
- MIC (C. tropicalis 1046709): 0.5 µg/mL
- MIC when added 1 log2 unit lower of azoles' MIC (C. tropicalis 1046709; with fluconazole): 0.25 mg/L
- MIC when added 1 log2 unit lower of azoles' MIC (C. tropicalis 1046709; with ketoconazole): 0.5 mg/L
- MIC when added 1 log2 unit lower of azoles' MIC (C. tropicalis 1046709; with voriconazole): 0.5 mg/L
- MIC when added 1 log2 unit lower of azoles' MIC ([2]; with fluconazole): 0.25 mg/L
- MIC when added 1 log2 unit lower of azoles' MIC ([2]; with ketoconazole): 0.25 mg/L
- MIC when added 1 log2 unit lower of azoles' MIC ([2]; with voriconazole): 0.5 mg/L
- MIC (Candida albicans SN250): 0.15 µM (≈ 0.139 µg/mL)
- Kd ([3]; read-out: KD,chol): 840 nM
- Kd ([3]; read-out: KD,erg): 120 nM
SMILES: C[C@@H]1[C@H](O)[C@@H](C)/C=C/C=C/C=C/C=C/C=C/C=C/C=C/[C@H](O[C@@H]2O[C@H](C)[C@@H](O)[C@H](N)[C@@H]2O)C[C@@H]2O[C@](O)(C[C@@H](O)C[C@@H](O)[C@H](O)CC[C@@H](O)C[C@@H](O)CC(=O)O[C@H]1C)C[C@H](O)[C@H]2C(=O)O [AmB, Amphotericin B]
- change of potency upon ergosterol pre-complexation (yeast cells): same reduction in potency

- MIC (C. glabrata 1046695; read-out: MIC): 4 µg/mL
- MIC (C. krusei ATCC 6258; [4]): 0.25 µg/mL
- MIC (C. krusei 975691; [5]): 1 µg/mL
- MIC (C. krusei 975691; single agent, isolate 975691): 2 µg/mL
- MIC (C. albicans 967374; [6]): 0.25 µg/mL
- MIC (C. auris 1081160; read-out: MIC): 0.5 µg/mL
- MIC (A. fumigatus 1077391): > 8 µg/mL
- MIC (F. solani SC 1047542): > 8 µg/mL
- MIC (A. flavus ATCC 204304): 2 µg/mL
- MIC (A. flavus SC 1085986): 4 µg/mL
- MIC [1, 7]: 8 µg/mL
- MIC [1]: >8 µg/mL
- MIC (F. oxysporum SC 1087597): > 8 µg/mL
- MIC (C. parapsilosis 1048737; [8]): 0.015 µg/mL
- MIC (C. parapsilosis 1048737): 0.03 µg/mL
- MIC (C. tropicalis 1046709): 0.12 µg/mL
- MIC [2, 9]: 0.06 µg/mL
SMILES: CC(=O)N1CCN(c2ccc(OCC3COC(Cn4ccnc4)(c4ccc(Cl)cc4Cl)O3)cc2)CC1 (centres unmarked) [Ketoconazole, ketoconazole]

SMILES: OC(Cn1cncn1)(Cn1cncn1)c1ccc(F)cc1F [Fluconazole, fluconazole]
- MIC (C. glabrata 1046695): 128 µg/mL
- MIC (C. krusei ATCC 6258; [4]): 32 µg/mL
- MIC (C. krusei 975691; Pichia kudriavzevii): 128 µg/mL
- MIC (C. albicans 967374; [6]): 16 µg/mL
- MIC (C. auris 1081160): > 128 µg/mL
- MIC (C. parapsilosis 1048737; [8]): 0.5 µg/mL
- MIC (C. parapsilosis 1048737): 1 µg/mL
- MIC (C. tropicalis 1046709): 4 µg/mL
- MIC [2, 9]: 1 µg/mL
- MIC ([2]; single agent): 2 µg/mL
